Laboratory results: US9676751B2, “2-amino-3-ester-pyridl orexin receptor antagonists” (MERCK SHARP & DOHME CORP., priority 2013, dated 2017)
Values belong to the molecule of their own block, whether it stands above or below them.

Key:
human orexin-2 receptor = biological target: T1, human orexin-2 receptor (Homo sapiens, UniProt O43614); test: FLIPR Ca2+ Flux Assay, CHO cells expressing the human orexin-2 receptor; type: cell-based; conditions: agonist 70 pM Ala-6,12 orexin-A, read-out: hOX2R FLIPR IC50
T1 construct: expressed in transfected cells; host or cells: CHO cells
T1 sequence (O43614 1-444): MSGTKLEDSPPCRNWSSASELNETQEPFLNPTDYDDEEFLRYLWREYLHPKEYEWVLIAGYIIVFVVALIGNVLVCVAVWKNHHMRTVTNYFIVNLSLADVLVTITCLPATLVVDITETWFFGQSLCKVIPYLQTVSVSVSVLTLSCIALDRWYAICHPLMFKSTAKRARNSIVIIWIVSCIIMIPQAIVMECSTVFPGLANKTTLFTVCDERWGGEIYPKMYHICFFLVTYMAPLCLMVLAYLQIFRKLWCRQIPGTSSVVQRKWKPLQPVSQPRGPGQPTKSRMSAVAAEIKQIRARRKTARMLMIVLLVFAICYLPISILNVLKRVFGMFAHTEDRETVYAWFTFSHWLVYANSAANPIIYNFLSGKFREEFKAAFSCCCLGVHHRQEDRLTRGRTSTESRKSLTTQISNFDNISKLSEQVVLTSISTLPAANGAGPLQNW
Procedure: The utility of the compounds in accordance with the present invention as orexin receptor OX1R and/or OX2R antagonists may be readily determined without undue experimentation by methodology well known in the art, including the “FLIPR Ca^2+ Flux Assay” (Okumura et al., Biochem. Biophys. Res. Comm. 280:976-981, 2001). In a typical experiment the OX1 and OX2 receptor antagonistic activity of the compounds of the present invention was determined in accordance with the following experimental method. For intracellular calcium measurements, Chinese hamster ovary (CHO) cells expressing the rat orexin-1 receptor or the human orexin-2 receptor, are grown in Iscove's modified DMEM containing 2 mM L-glutamine, […], 1% hypoxanthine-thymidine supplement, 100 U/ml penicillin, 100 μg/ml streptomycin and 10% heat-inactivated fetal calf serum (FCS). The cells are seeded at 20,000 cells/well into Becton-Dickinson black 384-well clear bottom sterile plates coated with poly-D-lysine. All reagents were from GIBCO-Invitrogen Corp. The seeded plates are incubated overnight at 37° C. and 5% CO2. Ala-6,12 human orexin-A as the agonist is prepared as a 1 mM stock solution in 1% bovine serum albumin (BSA) and diluted in assay buffer (HBSS containing 20 mM HEPES, 0.1% BSA and 2.5 mM probenecid, pH7.4) for use in the assay at a final concentration of 70 pM. Test compounds are prepared as 10 mM stock solution in DMSO, then diluted in 384-well plates, first in DMSO, then assay buffer. On the day of the assay, cells are washed 3 times with 100 μl assay buffer and then incubated for 60 min (37° C., 5% CO2) in 60 μl assay buffer containing 1 μM Fluo-4AM ester, 0.02% pluronic acid, and 1% BSA. The dye loading solution is then aspirated and cells are washed 3 times with 100 μl assay buffer. 30 μl of that same buffer is left in each well. Within the Fluorescent Imaging Plate Reader (FLIPR, Molecular Devices), test compounds are added to the plate in a volume of 25 μl, incubated for 5 min and finally 25 μl of agonist is added. Fluorescence is measured for each well at 1 second intervals for 5 minutes and the height of each fluorescence peak is compared to the height of the fluorescence peak induced by 70 pM Ala-6,12 orexin-A with buffer in place of antagonist. For each antagonist, IC50 value (the concentration of compound needed to inhibit 50% of the agonist response) is determined. Alternatively, compound potency can be assessed by a radioligand binding assay (described in Bergman et. al. Bioorg. Med. Chem. Lett. 2008, 18, 1425-1430) in which the inhibition constant (Ki) is determined in membranes prepared from CHO cells expressing either the OX1 or OX2 receptor. The intrinsic orexin receptor antagonist activity of a compound which may be used in the present invention may be determined by these assays.

hOX1R = biological target: T2, hOX1R (Homo sapiens, UniProt O43613); test: FLIPR Ca2+ Flux Assay, CHO cells expressing the orexin-1 receptor; type: cell-based; conditions: agonist 70 pM Ala-6,12 orexin-A
T2 construct: expressed in transfected cells; host or cells: CHO cells
T2 sequence (O43613 1-425): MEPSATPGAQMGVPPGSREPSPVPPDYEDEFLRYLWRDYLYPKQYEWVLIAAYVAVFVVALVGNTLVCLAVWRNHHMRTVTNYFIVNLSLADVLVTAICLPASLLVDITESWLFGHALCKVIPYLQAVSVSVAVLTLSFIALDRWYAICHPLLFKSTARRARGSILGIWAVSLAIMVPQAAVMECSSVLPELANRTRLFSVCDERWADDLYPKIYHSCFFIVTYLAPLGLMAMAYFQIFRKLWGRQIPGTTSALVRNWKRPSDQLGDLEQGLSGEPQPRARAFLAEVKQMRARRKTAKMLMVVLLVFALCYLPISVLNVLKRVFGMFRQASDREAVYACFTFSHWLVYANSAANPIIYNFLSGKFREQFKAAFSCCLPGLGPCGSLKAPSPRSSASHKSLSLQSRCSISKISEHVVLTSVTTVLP

Compound: COC(=O)c1c(OC)ccnc1N[C@@H]1CC[C@@H](C)N(C(=O)c2cccc(F)c2-c2ncccn2)C1 [Example 12, methyl 2-({(3R,6R)-1-[(3-fluoro-2-pyrimidin-2-ylphenyl)carbonyl]-6-methylpiperidin-3-yl}amino)-4-methoxypyridine-3-carboxylate]
IC50 (human orexin-2 receptor): 53 nM | IC50 (hOX1R): 196 nM

Compound: COC(=O)c1c(OC)ccnc1N[C@@H]1CC[C@@H](C)N(C(=O)c2c(F)cccc2-c2nc(C)no2)C1 [Example 8, methyl 2-{[(3R,6R)-1-{[2-fluoro-6-(3-methyl-1,2,4-oxadiazol-5-yl)phenyl]carbonyl}-6-methylpiperidin-3-yl]amino}-4-methoxypyridine-3-carboxylate]
IC50 (human orexin-2 receptor): 94 nM | IC50 (hOX1R): 288 nM

Compound: COC(=O)c1c(OC)ccnc1N[C@@H]1CC[C@@H](C)N(C(=O)c2ccccc2-c2ncccn2)C1 [Example 11, Methyl 4-methoxy-2-({(3R,6R)-6-methyl-1-[(2-pyrimidin-2-ylphenyl)carbonyl]piperidin-3-yl}amino)pyridine-3-carboxylate]
IC50 (human orexin-2 receptor): 41 nM | IC50 (hOX1R): 80 nM

Compound: COC(=O)c1c(OC)ccnc1N[C@@H]1CC[C@@H](C)N(C(=O)c2c(F)cccc2-c2noc(C)n2)C1 [Example 10, methyl 2-{[(3R,6R)-1-{[2-fluoro-6-(5-methyl-1,2,4-oxadiazol-3-yl)phenyl]carbonyl}-6-methylpiperidin-3-yl]amino}-4-methoxypyridine-3-carboxylate]
IC50 (human orexin-2 receptor): 88 nM | IC50 (hOX1R): 332 nM

Compound: COC(=O)c1c(OC)ccnc1N[C@@H]1CC[C@@H](C)N(C(=O)c2c(F)cccc2-n2nccn2)C1 [Example 6, methyl 2-{[(3R,6R)-1-{[2-fluoro-6-(2H-1,2,3-triazol-2-yl)phenyl]carbonyl}-6-methylpiperidin-3-yl]amino}-4-methoxypyridine-3-carboxylate]
IC50 (human orexin-2 receptor): 54 nM | IC50 (hOX1R): 154 nM

Compound: COC(=O)c1c(OC)ccnc1N[C@@H]1CC[C@@H](C)N(C(=O)c2ccccc2-n2nccn2)C1 [Example 2, Methyl 4-methoxy-2-{[(3R,6R)-6-methyl-1-{[2-(2H-1,2,3-triazol-2-yl)phenyl]carbonyl}-piperidin-3-yl]amino}pyridine-3-carboxylate]
IC50 (human orexin-2 receptor): 25 nM | IC50 (hOX1R): 53 nM

Compound: COC(=O)c1c(OC)ccnc1N[C@@H]1CC[C@@H](C)N(C(=O)c2ccccc2-c2nc(C)no2)C1 [Example 7, methyl 4-methoxy-2-{[(3R,6R)-6-methyl-1-{[2-(3-methyl-1,2,4-oxadiazol-5-yl)phenyl]carbonyl}piperidin-3-yl]amino}pyridine-3-carboxylate]
IC50 (human orexin-2 receptor): 74 nM | IC50 (hOX1R): 309 nM

Compound: COC(=O)c1c(OC)ccnc1N[C@@H]1CC[C@@H](C)N(C(=O)c2cc(F)ccc2-n2nccn2)C1 [Example 5, methyl 2-{[(3R,6R)-1-{[5-fluoro-2-(2H-1,2,3-triazol-2-yl)phenyl]carbonyl}-6-methylpiperidin-3-yl]amino}-4-methoxypyridine-3-carboxylate]
IC50 (human orexin-2 receptor): 45 nM | IC50 (hOX1R): 207 nM

Compound: COC(=O)c1c(OC)ccnc1N[C@@H]1CC[C@@H](C)N(C(=O)c2cccc(F)c2-n2nccn2)C1 [Example 4, methyl 2-{[(3R,6R)-1-{[3-fluoro-2-(2H-1,2,3-triazol-2-yl)phenyl]carbonyl}-6-methylpiperidin-3-yl]amino}-4-methoxypyridine-3-carboxylate]
IC50 (human orexin-2 receptor): 45 nM | IC50 (hOX1R): 362 nM

Compound: COC(=O)c1cccnc1N[C@@H]1CC[C@@H](C)N(C(=O)c2ccccc2-n2nccn2)C1 [Example 1, Methyl 2-{[(3R,6R)-6-methyl-1-{[2-(2H-1,2,3-triazol-2-yl)phenyl]carbonyl}piperidin-3-yl]amino}pyridine-3-carboxylate]
IC50 (human orexin-2 receptor): 38 nM

Compound: COC(=O)c1c(OC)ccnc1N[C@@H]1CC[C@@H](C)N(C(=O)c2ccccc2-n2ncnn2)C1 [Example 3, Methyl 4-methoxy-2-{[(3R,6R)-6-methyl-1-{[2-(2H-tetrazol-2-yl)phenyl]carbonyl}piperidin-3-yl]amino}pyridine-3-carboxylate]
IC50 (human orexin-2 receptor): 34 nM | IC50 (hOX1R): 237 nM

Next, values leading:

IC50 (human orexin-2 receptor): 38 nM | IC50 (hOX1R): 66 nM
Compound: COC(=O)c1c(OC)ccnc1N[C@@H]1CC[C@@H](C)N(C(=O)c2c(F)cccc2-c2ncccn2)C1 [Example 15, methyl 2-({(3R,6R)-1-[(2-fluoro-6-pyrimidin-2-ylphenyl)carbonyl]-6-methylpiperidin-3-yl}amino)-4-methoxypyridine-3-carboxylate]

IC50 (human orexin-2 receptor): 44 nM | IC50 (hOX1R): 138 nM
Compound: COC(=O)c1c(OC)ccnc1N[C@@H]1CC[C@@H](C)N(C(=O)c2ccc(F)cc2-c2ncccn2)C1 [Example 13, methyl 2-({(3R,6R)-1-[(4-fluoro-2-pyrimidin-2-ylphenyl)carbonyl]-6-methylpiperidin-3-yl}amino)-4-methoxypyridine-3-carboxylate]

IC50 (human orexin-2 receptor): 48 nM | IC50 (hOX1R): 86 nM
Compound: COC(=O)c1c(C#N)ccnc1N[C@@H]1CC[C@@H](C)N(C(=O)c2ccccc2-c2ncccn2)C1 [Example 20, Methyl 4-cyano-2-({(3R,6R)-6-methyl-1-[(2-pyrimidin-2-ylphenyl)carbonyl]piperidin-3-yl}amino)pyridine-3-carboxylate]

IC50 (human orexin-2 receptor): 51 nM | IC50 (hOX1R): 83 nM
Compound: COC(=O)c1c(OC)ccnc1N[C@@H]1CC[C@@H](C)N(C(=O)c2cc(F)ccc2-c2ncccn2)C1 [Example 14, methyl 2-({(3R,6R)-1-[(5-fluoro-2-pyrimidin-2-ylphenyl)carbonyl]-6-methylpiperidin-3-yl}amino)-4-methoxypyridine-3-carboxylate]

IC50 (human orexin-2 receptor): 40 nM | IC50 (hOX1R): 402 nM
Compound: COC(=O)c1c(OC)ccnc1N[C@@H]1CC[C@@H](C)N(C(=O)c2sccc2-c2ncccn2)C1 [Example 16, methyl 4-methoxy-2-({(3R,6R)-6-methyl-1-[(3-pyrimidin-2-ylthiophen-2-yl)carbonyl]piperidin-3-yl}amino)pyridine-3-carboxylate]

IC50 (human orexin-2 receptor): 58 nM | IC50 (hOX1R): 266 nM
Compound: COC(=O)c1c(OC)ccnc1N[C@@H]1CC[C@@H](C)N(C(=O)c2ccsc2-c2ncccn2)C1 [Example 17, methyl 4-methoxy-2-({(3R,6R)-6-methyl-1-[(2-pyrimidin-2-ylthiophen-3-yl)carbonyl]piperidin-3-yl}amino)pyridine-3-carboxylate]

IC50 (human orexin-2 receptor): 168 nM | IC50 (hOX1R): 338 nM
Compound: COC(=O)c1c(OC)ccnc1N[C@@H]1CC[C@@H](C)N(C(=O)c2ncccc2-c2ncccn2)C1 [Example 18, methyl 4-methoxy-2-({(3R,6R)-6-methyl-1-[(3-pyrimidin-2-ylpyridin-2-yl)carbonyl]piperidin-3-yl}amino)pyridine-3-carboxylate]

IC50 (human orexin-2 receptor): 24 nM | IC50 (hOX1R): 43 nM
Compound: COC(=O)c1c(C#N)ccnc1N[C@@H]1CC[C@@H](C)N(C(=O)c2ccccc2-n2nccn2)C1 [Example 19, Methyl 4-cyano-2-{[(3R,6R)-6-methyl-1-{[2-(2H-1,2,3-triazol-2-yl)phenyl]carbonyl}-piperidin-3-yl]amino}pyridine-3-carboxylate]
